# pIC50: −log10 of the molar value. Read-outs that look alike come from different tables or passages of the source.
# Key:
# SOS1 = assay: qRT-PCR of SOS1 in MKN45 gastric cancer cells; assay type: cell-based, human; conditions: MKN45, 1 μM, 6 hours
# Protocol: A total RNA was isolated with RNeasy mini kit (Qiagen) and reverse transcribed with Reverse script kit (TOYOBO) to generate cDNA. Real-time quantitative polymerase chain reaction (PCR) was carried out with 7500 Real-Time PCR System (Applied Biosystems) according to the manufacturer's instructions. Results were normalized to GAPDH levels. Relative expression levels were calculated using the 2-ΔΔCt method.
# To the MKN45 gastric cancer cell line, 1 μM of Chb-M′ was administered. After 6 hours, the mRNA level of SOS1 was evaluated by RT-PCR method using qRT-PCR (see the above-described “Real-time quantitative PCR (qRT-PCR)”). As a control, DMSO was administered. In the figure, the mRNA expression level of SOS1 is shown as a value relative to that in the DMSO-treated group.
# [1] = system: p53-mutated colon cancer cell line HT29; conditions: HT29, 72 hours
# THP-1 = conditions: THP-1, p53mut(+); for IC50: 48 hours
# A549 = assay: Cell viability, lung adenocarcinoma A549; assay type: cell-based, human; conditions: A549 (EGFR wild-type p53 wild-type), 48 hours
# E-selectin = assay: In vivo E-selectin expression in bone marrow endothelial cells; set-up: species or system mouse; conditions: normal mice, 320 μg/kg, 6 times over 2 weeks, 24 hours after last administration
# Protocol: Changes in expression levels of E-selectin in bone marrow endothelial cells by Chb-M′ administration were examined in vivo. To normal mice, DMSO (control) or Chb-M′ was administered 6 times over 2 weeks (320 μg/kg per administration). Twenty-four hours after the last administration (in a state in which Chb-M′ had been eliminated from the body of the mouse), the femur and tibia were harvested, from them bone marrow hematopoietic cells were removed, and endothelial cells were collected and subjected to FACS analysis. CD45 negative cells (bone marrow cells without bone marrow hematopoietic cells) were gated, and a ratio between CD31 positive cells (vascular endothelial marker-positive) and Lin-negative CD45-negative CD31-positive E-selectin-positive cells (E-selectin-positive bone marrow vascular endothelial cells) was analyzed by FACS.
# A549 cells = assay: Xenograft lung cancer mouse model (A549); assay type: in vivo
# [2] = system: medulloblastoma cell line DAOY; conditions: DAOY (SHH, TP53-mutated), 48 hours
# [3] = system: c-kit, phospho-c-Kit, AKT, phosphorylated AKT, Mitf; assay: Western blot of KIT signalling, LAD2 mast cells; assay type: cell-based, human; conditions: LAD2, 10 μM, 18 hours
# Protocol: (§1) Cells were washed twice with ice cold phosphate-buffered saline (PBS) and harvested in protein lysis buffer [50 mM Tris (pH 7.4), 100 mM NaCl, 0.1 mM EDTA, 1 mM phenylmethylsulfonyl fluoride, 1 mM β-glycerophosphate, 2.5 mM sodium pyrophosphate, 1 mM Na3VO4, lx protease inhibitor (Roche) and PhosSTOP (Roche)]. Whole cell extracts were separated by SDS-polyacrylamide gel electrophoresis (SDS-PAGE) and electrotransferred onto polyvinylidene difluoride membranes. Membranes were probed with the following antibodies: anti-Ctip1 antibody (Abcam, ab19487), anti-TRIM24 antibody (Bethyl Laboratories, Inc), anti-RUNX1 antibody (A-2), anti-GAPDH (FL-335), anti-p21 (C-19), anti-Bax (N-20) antibodies (Santa Cruz Biotechnology, Inc.), anti-RUNX2, anti-RUNX3, anti-p53 antibodies (Cell Signaling Technology), anti-CBFβ antibody (FL-182, Santa Cruz Biotechnology, Inc.), anti-cleaved caspase-3 antibody (5A1E, Cell Signaling Technology), anti-PARP antibody (46D11, Cell Signaling Technology). For secondary antibodies, anti-rabbit IgG, or anti-mosue IgG HRP-linked antibodies (Cell Signaling Technology) were used. Blots were detected using Chemi-Lumi One Super (nacalai tesque, Inc.) and ChemiDoc™ XRS+ Imager (Bio-Rad Laboratories, Inc.), as recommended by the manufacturers. Protein levels were quantified with Image Lab Software (Bio-Rad Laboratories, Inc.).
# To the LAD2 cell line and the HMC-1.2 cell line, 10 μM Chb-M′ was administered. After culturing the cells for 18 hours, extracts were obtained from the cells, and the protein expression levels of c-kit, phospho-c-Kit, AKT, phosphorylated AKT, Mitf, and GAPDH were analyzed by the Western blot analysis (see the above-described “Immunoblotting”) using different antibodies. AKT is an important signaling protein downstream of c-kit. Mitf is a representative transcriptional driver for c-kit. As a control, DMSO was administered. In the figure, “KIT” indicates c-kit, “pKIT” indicates phosphorylated c-kit, and “pAKT” indicates phosphorylated AKT. As primary antibodies, an anti-c-Kit antibody (Ab81, manufactured by Cell Signaling Technology), an anti-phospho-c-Kit (Tyr719) antibody (manufactured by Cell Signaling Technology), an anti-Akt antibody (manufactured by Cell Signaling Technology), an anti-phospho-Akt antibody (Ser473) (manufactured by Cell Signaling Technology), an anti-Mitf antibody (manufactured by Cosmo Bio), and an anti-GAPDH antibody (0411, manufactured by Santa Cruz Biotechnology, Inc.) were used. As secondary antibodies, an ECL™ anti-mouse IgG horseradish peroxidase-linked whole antibody (manufactured by GE Healthcare) and an ECL™ anti-rabbit IgG linked whole antibody (manufactured by GE Healthcare) were used.
# BCR-ABL fusion protein = assay: Western blotting of BCR-ABL fusion protein in CML and PhALL cells; assay type: cell-based, human; conditions: 3 μM or 1 μM, 24 hours
# Protocol: as §1
# To BV173 cells, MYL cells, SU-Ph2 cells, and SU/SR cells, 3 μM or 1 μM of Chb-M′ were administered. After 24 hours, proteins were extracted, and then subjected to the Western blotting method (see the above-described “Immunoblotting”) using an ABL antibody to confirm expressions of BCR-ABL fusion protein at protein levels. As a control, DMSO was administered.
# Half-life in mouse = conditions: in vivo
structure (smiles),measurement,setting,value
CN(C)CCCNC(=O)c1cc(NC(=O)c2cc(NC(=O)c3cc(NC(=O)c4cc(NC(=O)CCCNC(=O)c5nc(NC(=O)c6nc(NC(=O)c7cc(NC(=O)c8nc(NC(=O)CCNC(=O)CCCc9ccc(N(CCCl)CCCl)cc9)cn8C)cn7C)cn6C)cn5C)cn4C)cn3C)cn2C)cn1C [Chb-M′],Expression of SOS1 (mRNA),SOS1,suppressed
same,pIC50,[1],5.53
same,CI (Fa = 0.5),"THP-1; concomitant use of Chb-M′ and PRIMA-1, Chou-Talalay, CI<1 synergism",0.249
same,IC50,"THP-1; read-out: IC50 (μM) of Chb-M′ in concomitant use with PRIMA-1 (5 μM), with 5 μM PRIMA-1",0.5 µM
same,IC50,THP-1; read-out: IC50 (μM) of Chb-M′ single agent administration,> 100 µM
same,IC50 compared with the EGFR inhibitor (gefitinib),A549,lower IC50 values
same,E-selectin expression levels in bone marrow endothelial cells,E-selectin,significantly decreased
same,Effect on the lung cancer model,A549 cells; A549 xenograft,inhibited the growth
same,H&E staining of lung tissue (lung cancer cells in pulmonary alveoli),A549 cells; day 14 after transplantation,rather diminished
same,"Brightness of luciferase (IVIS), lung","A549 cells; day 14 after transplantation, after 2 administrations",rather weakened
same,Bioluminescence signal intensity vs DMSO or gefitinib,A549 cells; day 21 after transplantation,far lower
same,"Brightness of luciferase (IVIS), lung","A549 cells; day 21 after transplantation, after total 4 administrations",further weakened
same,Lengthening of overall survival periods,"A549 cells; mice with gefitinib-resistant A549, 320 μg/kg IV twice a week from day 7",about 2 times
same,pIC50,[2],6.09
same,Expression of c-kit protein,[3],suppressed
same,Level of phosphorylated AKT protein,[3],decreased
same,Protein expression level of Mitf,[3],not affected
same,Total amount of AKT,[3],not considerably changed
same,phospho-c-Kit protein,[3],suppressed
same,p210BCR-ABL fusion protein,BCR-ABL fusion protein; BV173 cells,lost
same,p210BCR-ABL fusion protein,BCR-ABL fusion protein; MYL cells,lost
same,p190BCR-ABL fusion protein,BCR-ABL fusion protein; SU-Ph2 cells,lost
same,p190BCR-ABL fusion protein,BCR-ABL fusion protein; SU/SR cells,lost
same,half-life,Half-life in mouse,~5 h
